From patent publication US20220364056A1, “SHORT-CHAIN FATTY ACID PENTANOATE AS ENHANCER FOR CELLULAR THERAPY AND ANTI-TUMOR THERAPY” (PHILIPPS-UNIVERSITÄT MARBURG, priority 2019, published 2022)

How the values were obtained:
HDAC = experiment: fluorogenic HDAC assay on CTL-derived cell lysates; format: biochemical, murine; conditions: unstimulated CTLs set to 1.0
Experimental: (A) Experimental design for the treatment of CTLs with the water-soluble fraction of intestinal content derived from SPF or GF mice. (B and C) Frequencies of IFN-γ- and TNF-α-producing CTLs treated with the extract from luminal content derived from indicated organs. Representative results of two experiments are shown (n=3). (D) ELISA was performed to measure the secretion of TNF-α by CLTs treated as shown in (A). (E) Quantitative measurement of total SCFA amounts in fecal samples of SPF and GF mice (n=5). (F and G) The percentage of IFN-γ^+ TNF-α^+ CTLs treated with the indicated SCFAs for three days (n=3, one of three independent experiments is shown). (H) The secretion of TNF-α from CTLs treated with SCFAs was determined by ELISA (n=3, one of two independent experiments is shown). (I) The fluorogenic HDAC assay was applied to measure the HDAC inhibitory activity of SCFAs on CTLs. The value for unstimulated CTLs was arbitrarily set to 1.0. Four independent experiments were performed. (J and K) Representative contour plots (J) and bar graphs (K) showing the frequency of IFN-γ+ and TNF-α+ cells after pentanoate (2 mM) or VPA (0.5 mM) administration. Three similar experiments were performed. (L and M) The frequency of Eomes- and T-bet-expressing CTLs treated with pentanoate (2 mM) or VPA (0.5 mM) for three days was analyzed by flow cytometry (n=4). […]

mTOR = experiment: phosphorylation of mTOR and S6 in murine CTLs; format: cell-based; conditions: pentanoate 2.5 mM, three days
Experimental: (A and B) CTLs were cultured in medium containing 1.0% FCS and treated with pentanoate (2.5 mM) for three days. Representative histogram plots and bar graphs indicate the phoshorylated levels of mTOR (A) and S6 ribosomal protein (B), respectively (n=3 pooled from three independent experiments). (C and D) Human CTLs were cultured in medium containing 1.0% serum and treated with indicated HDACi for three days. Representative histogram plots and bar graphs indicate the phoshorylated levels of mTOR (C) and S6 ribosomal protein (D), respectively (data points represent four individual healthy donors) (E) Measurement of extracellular acidification rate (ECAR) for in vitro generated murine CTLs cultured with or without 2.5 mM pentanoate for three days. ECAR was measured under basal conditions and in response to glucose (10 mM), oligomycin (2 μM), and 2-deoxy-glucose (2-DG, 100 mM). One of three independent experiments is shown.

human CD8+ T lymphocytes = human CD8+ T lymphocytes differentiated into CTLs, flow cytometry; format: cell-based
Experimental: (A and B) CD8^+ T cells isolated from spleens and LNs were polarized under Tc17-inducing conditions and treated with pentanoate for 3 days. Representative contour plots (A) and bar graphs (B) indicate the frequency of IL-17^+ and IFN-γ+ cells. Three similar experiments were performed. (C and D) CD8^+ T cells isolated from spleens and LNs were polarized under Tc9-inducing conditions and treated with pentanoate for 3 days. Representative contour plots (C) and bar graphs (D) are showing the frequency of IL-9^+ and IFN-γ+ cells. Three similar experiments were performed. (E and F) The expression of granzyme B, IFN-γ and Eomes in pentanoate-treated human CTLs was analysed by flow cytometry. Five independent experiments were performed (E). For Eomes, mean fluorescence intensity (MFI) values are shown (F, n=3).
(A) CD8^+ T cells isolated from peripheral blood of healthy donors were differentiated into CTLs in presence or absence of indicated HDACi. Representative contour plots and dot plots indicate the frequency of TNF-α+ and IFN-γ^+ cells. Data points in the graphs represent individual donors (n=4, performed in 4 independent experiments) (B-G) Phenotyping of pentanoate-treated ROR1-specific CD8^+ CAR T cells (CARROR1 T cells). (B) Experimental setup for the functional analysis is shown. (C) The cytokine secretion (IFN-γ and TNF-α) was analysed in supernatants of pentanoate-treated CARROR1 T cells by ELISA. (D) The surface expression of CD25 was measured by flow cytometry. (E) The secretion of IL-2 was detected in supernatants of CARROR1 T cells by ELISA. (F) Proliferation of CARROR1 T cells was determined by CFSE labelling. CARROR1 T cells pre-treated with pentanoate were stained with CFSE and subsequently co-cultured with […] cells in the absence of pentanoate. CD8^+ T cells without the CAR construct were used as mock control cells. […] The percentage of lysed target cells was determined in 1 hour intervals (effector-to-target cell (E:T) ratio=2.5:1). […]

CCCCC(=O)O [pentanoate]
HDAC activity of CTL-derived cell lysates (HDAC): strong reduction of HDAC activity | phosphorylation level of S6 ribosomal protein (mTOR): elevated the phosphorylation levels | phosphorylation level of mTOR (mTOR): elevated the phosphorylation levels | expression of granzyme B, IFN-γ and Eomes (human CD8+ T lymphocytes): enhancing the expression | expression of TNF-α and IFN-γ (human CD8+ T lymphocytes; healthy donors): enhancing the expression
